# Assay results from US20060252727A1, “Medicinal compositions and therapeutic methods for treating arthritis and other painful conditions” (priority 2001, published 2006).
# Marks after values point to notes of the source that are not given here.
# Legend:
# [1] = test system: mouse hot plate jumping threshold; test: Analgesic activity, mouse hot plate test; format: in vivo
# Source text: Analgesic activity of DPA using the mouse hot plate test. The mouse hot plate is a generally recognized method for evaluating analgesic drugs that act on the endorphin system, e.g., morphine-like drugs and drugs that increase endorphin levels, e.g., DPA. Such drugs are useful for treating many kinds of painful conditions, including arthritis, headache, low back pain, musculoskeletal pain, pre-menstrual pain, and dental pain.
# In this method, groups of mice (6 albino mice per group, weighing between 22 and 25 grams) are individually placed on a hot plate at 55° C. and a beaker is placed over the mouse. The time for the mouse to jump in an attempt to escape the painful condition is recorded. An analgesic substance is one which increases the threshold to pain, thereby permitting the mouse to remain on the hot plate for longer times. The effect of the drug is compared to that of a saline control. DPA at different doses was injected intra-peritoneally into the mice 2 hours before they were placed on the hot plate, and jumping time determined over the next 1-2 hours. The effect of DPA was compared with that of an injection of saline.
# For studies involving combinations of drugs, the combination was injected at the same time. In the studies shown below, the second drug consisted of indomethacin, diclofenac, or acetaminophen. Each of these drugs is used for treating arthritis, as well as many other painful conditions.
# [2] = test system: carrageenan swelling of the rat paw; test: Anti-inflammatory activity, rat paw carrageenan method; format: in vivo
# Procedure: Anti-inflammatory activity of DPA using the rat paw carrageenan method. This is a generally recognized method for evaluating anti-inflammatory drugs of the aspirin/NSAID (as used throughout this application NSAID refers to a non-steroidal, anti-inflammatory drug) type or those that counteract the action of the prostaglandins. Such drugs are useful for treating conditions such as arthritis in animals and humans. In this method, the paw of the rat is injected with carrageenan, which causes swelling of the paw due to the accumulation of fluid. […] In this study, DPA was administered by various routes and times into groups of rats (6 male albino rats per group-weight approximately 250 grams) before carrageenan and the degree of swelling was measured by the extent of displacement of water when the paw was immersed into a calibrated cylinder. A placebo consisting of saline solution was similarly administered.
# PBQ writhing in mice [3] = test: Anti-inflammatory activity, mouse phenylbenzylquinone (PBQ) writhing test; format: in vivo; conditions: for Number of writhes: counted over 20 minutes
# Procedure: Anti-inflammatory activity of DPA using the mouse phenylbenzylquinone (PBQ) writhing test. This is a generally recognized method for evaluating anti-inflammatory drugs of the aspirin/NSAID type, i.e. those drugs which counteract the action of the prostaglandins. Such drugs are useful for treating conditions such as arthritis in animals and humans.
# In this method, a solution of PBQ was injected subcutaneously into groups of 6 mice (male, albino, 22-25 grams). Within a few minutes, the mice began to writhe. DPA was injected intra-peritoneally or given by mouth at different times prior to PBQ. The number of writhes was counted over a period of 20 minutes. The effects of DPA were compared to that of similarly administered saline control.
# [4] = test system: pain in patients with arthritis and other skeletal diseases; test: Efficacy of DPA in humans with arthritis and other musculoskeletal diseases (open-label, cross-over); format: in vivo, human
# Procedure: 4. Efficacy of DPA treatment for arthritis and a variety of other musculoskeletal diseases; human studies. Forty-three patients were studied in an open-label, cross-over procedure. Of these, 32 had arthritis. All of the patients had previously been given many treatments, without success, in relieving their pain. Pre-DPA administration treatments used included such potent drugs as Percodan, Darvocet, Valium, and aspirin, as well as acupuncture. Prior to giving DPA 800 mg/day by mouth, all treatments were stopped. Patients were given a card on which they scored their degree of pain, on a scale of 1-4; 1 indicated no relief, 2 indicated approximately 25% relief, 3 indicated approximately 50% relief, and 4 indicated complete relief.
# PBQ writhing in mice [5] = test: Anti-inflammatory activity, mouse phenylbenzylquinone (PBQ) writhing test; format: in vivo; conditions: for Number of writhes: counted over 20 minutes; remark: listed apart in the source
# [6] = NSAID alone, 20 mg/kg, hot plate at 55° C.
# [7] = DPA 800 mg/day by mouth, 43 patients, 32 with arthritis, self-scored pain relief
structure (smiles),measurement,setting,value
"O=C(O)Cc1ccccc1Nc1c(Cl)cccc1Cl [Diclofenac, diclofenac, reference compound]","Increase in the threshold to jumping, compared to control",[1]; [6],0
"COc1ccc2c(c1)c(CC(=O)O)c(C)n2C(=O)c1ccc(Cl)cc1 [Indomethacin, indomethacin, reference compound]","Increase in the threshold to jumping, compared to control",[1]; [6],0
"N[C@H](Cc1ccccc1)C(=O)O [DPA, D-phenylalanine]",% Inhibition of swelling,"[2]; oral administration, 150 minutes before carrageenan, 125 mg/kg",7%
same,% Inhibition of swelling,"[2]; oral administration, 150 minutes before carrageenan, 250 mg/kg",10%
same,% Inhibition of swelling,"[2]; oral administration, 150 minutes before carrageenan, 500 mg/kg",24%
same,% Inhibition of swelling,"[2]; oral administration, 150 minutes before carrageenan, 1000 mg/kg",62%
same,% Inhibition of swelling,"[2]; oral administration, 150 minutes before carrageenan, 1500 mg/kg",79%
same,% Inhibition of swelling,"[2]; subcutaneous injection, 120 minutes before carrageenan, 8 mg/kg",15%
same,% Inhibition of swelling,"[2]; subcutaneous injection, 120 minutes before carrageenan, 125 mg/kg",37%
same,% Inhibition of swelling,"[2]; subcutaneous injection, 120 minutes before carrageenan, 500 mg/kg",35%
same,% Inhibition of swelling,"[2]; subcutaneous injection, 6 hours before carrageenan, dose 62.5",35%
same,% Inhibition of swelling,"[2]; subcutaneous injection, 6 hours before carrageenan, dose 250",36%
same,% Inhibition of swelling,"[2]; subcutaneous injection, 6 hours before carrageenan, dose 500",75%
same,% inhibition of writhing,"PBQ writhing in mice [3]; intra-peritoneal injection, 2 hours before PBQ, 250 mg/kg",73%
same,Number of writhes,"PBQ writhing in mice [3]; intra-peritoneal injection, 2 hours before PBQ, 250 mg/kg, saline 125",34
same,% inhibition of writhing,"PBQ writhing in mice [3]; intra-peritoneal injection, 2 hours before PBQ, 500 mg/kg",90%
same,Number of writhes,"PBQ writhing in mice [3]; intra-peritoneal injection, 2 hours before PBQ, 500 mg/kg, saline 125",13
same,% inhibition of writhing,"PBQ writhing in mice [3]; oral administration, 2.5 hours before PBQ, 250 mg/kg",10%
same,Number of writhes,"PBQ writhing in mice [3]; oral administration, 2.5 hours before PBQ, 250 mg/kg, saline 148",133
same,Number of writhes,"PBQ writhing in mice [3]; oral administration, 2.5 hours before PBQ, 500 mg/kg, saline 148",110
same,% inhibition of writhing,"PBQ writhing in mice [3]; oral administration, 2.5 hours before PBQ, 1000 mg/kg",62%
same,Number of writhes,"PBQ writhing in mice [3]; oral administration, 2.5 hours before PBQ, 1000 mg/kg, saline 148",56
same,"Increase in the threshold to jumping, compared to control","[1]; DPA 250 mg/kg intra-peritoneally, 2 hours before hot plate at 55° C.",3-fold
same,"increase of the threshold time to jump, as compared to saline control","[1]; mouse hot plate, as shown in Table 3",three-fold
same,Complete relief of pain (number of patients),[4]; [7],2
same,Excellent relief of pain (number of patients),[4]; [7],7
same,Moderate relief of pain (number of patients),[4]; [7],19
same,No relief of pain (number of patients),"[4]; DPA 800 mg/day by mouth, 43 patients, most of these took DPA for only 1-2 weeks",15*
same,effect on pain in humans,"[4]; DPA alone, 800 mg/day",successfully decrease
same,% inhibition of writhing,"PBQ writhing in mice [5]; oral administration, 2.5 hours before PBQ, 500 mg/kg",24%
same,% inhibition of writhing,"PBQ writhing in mice [5]; subcutaneous injection, 6 hours before PBQ, 62.5 mg/kg",35%
same,Number of writhes,"PBQ writhing in mice [5]; subcutaneous injection, 6 hours before PBQ, 62.5 mg/kg, saline 166",108
same,% inhibition of writhing,"PBQ writhing in mice [5]; subcutaneous injection, 6 hours before PBQ, 250 mg/kg",36%
same,Number of writhes,"PBQ writhing in mice [5]; subcutaneous injection, 6 hours before PBQ, 250 mg/kg, saline 166",106
same,% inhibition of writhing,"PBQ writhing in mice [5]; subcutaneous injection, 6 hours before PBQ, 500 mg/kg",75%
same,Number of writhes,"PBQ writhing in mice [5]; subcutaneous injection, 6 hours before PBQ, 500 mg/kg, saline 110",28
